Assays:
[1] = Time for peak concentration (tmax) at a dose of 20 mg/kg in rats; assay type: ADME, organism-based; set-up: dose 20 mg/kg; conditions: rat, in vivo
[2] = Peak concentration (Cmax) at a dose of 20 mg/kg in rats; assay type: ADME, organism-based; set-up: dose 20 mg/kg; conditions: rat, in vivo
MT4 [3] = test: The compound was tested for cytotoxicity against mock-infected MT-4 cells.; assay type: functional; conditions: Homo sapiens
MT4 [4] = test: The compound was tested against HIV-1(IIIB) replication on the inhibition of virus -induced cytopathogenicity in MT-4 cells.; assay type: functional, cell-based; conditions: Homo sapiens
[5] = The time for peak concentration value after oral administration in cynomolgus monkeys; assay type: ADME, organism-based; conditions: cercopithecidae, in vivo
[6] = Mean residence time was determined after intravenous administration in cynomolgus monkeys; assay type: ADME, organism-based; conditions: cercopithecidae, in vivo
[7] = Area under curve was determined using trapezoidal rule after intravenous administration in cynomolgus monkeys; assay type: ADME; conditions: cercopithecidae, in vivo
[8] = The total clearance was determined after intravenous administration in cynomolgus monkeys; assay type: ADME, organism-based; conditions: cercopithecidae, in vivo, read-out: CLtotal (converted)
[9] = The distribution volume after intravenous administration in cynomolgus monkeys; assay type: ADME, organism-based; conditions: cercopithecidae, in vivo, read-out: Vdss
[10] = Bioavailability was reported in cynomolgus monkeys (ratio of AUC in oral administration to that of intravenous administration); assay type: ADME, organism-based; conditions: cercopithecidae, in vivo, read-out: BA
[11] = Half-life period after intravenous administration in cynomolgus monkeys; assay type: ADME, organism-based; conditions: cercopithecidae, in vivo
[12] = The peak concentration (Cmax) value after oral administration in cynomolgus monkeys; assay type: ADME, organism-based; set-up: route oral; conditions: cercopithecidae, in vivo
[13] = Half-life period after oral administration in cynomolgus monkeys; assay type: ADME, organism-based; conditions: cercopithecidae, in vivo
[14] = Area under curve was determined using trapezoidal rule after oral administration in cynomolgus monkeys; assay type: ADME; conditions: cercopithecidae, in vivo
MT4 [15] = test: The compound was tested against HIV-1(IIIB) replication on the inhibition of virus -induced cytopathogenicity in MT-4 cells; assay type: functional, cell-based; conditions: Homo sapiens
MT4 [16] = test: The compound was tested for cytotoxicity against mock-infected MT-4 cells; assay type: functional; conditions: Homo sapiens
[17] = Time for peak concentration (tmax) at a dose of 10 mg/kg in rats; assay type: ADME, organism-based; set-up: dose 10 mg/kg; conditions: rat, in vivo
[18] = Peak concentration (Cmax) at a dose of 10 mg/kg in rats; assay type: ADME, organism-based; set-up: dose 10 mg/kg; conditions: rat, in vivo

SMILES | Tmax [1] [h] | Cmax [2] [ng/mL] | CC50 (MT4 [3]) [nM] | IC50 (MT4 [4]) [nM] | IC50 (MT4 [15]) [nM] | CC50 (MT4 [16]) [nM] | further results
CCn1cc(C(=O)O)c(=O)c2cc(F)c(N3CCN(c4ncccn4)CC3)c(C(F)(F)F)c21 | 2 | 5460 | 1500 | 95 | – | – | –
Cn1cc(C(=O)O)c(=O)c2cc(F)c(N3CCN(c4ccccn4)CC3)c(C(F)(F)F)c21 | 1 | 26400 | 220 | 14 | – | – | Tmax [5]: 2 h; MRT [6]: 9.3 h; AUC [7]: 18400 ng·h/mL; clearance [8]: 0.928 mL/min/kg; Vd [9]: 0.509 L/kg; bioavailability [10]: 93.5%; half-life [11]: 8.8 h; Cmax [12]: 1400 ng/mL; half-life [13]: 7.5 h; AUC [14]: 17200 ng·h/mL
COc1ccccc1N1CCN(c2c(F)cc3c(=O)c(C(=O)O)cn(C4CC4)c3c2C(F)F)CC1 | – | – | 12000 | 560 | – | – | –
Cn1cc(C(=O)O)c(=O)c2cc(F)c(N3CCN(c4ccccn4)CC3)c(C(F)F)c21 | – | – | – | – | 240 | 9200 | –
COc1ccccc1N1CCN(c2c(F)cc3c(=O)c(C(=O)O)cn(C4CC4)c3c2C(F)(F)F)CC1 | 4 | 3460 | 870 | 69 | – | – | –
O=C(O)c1cn(C2CC2)c2c(C(F)F)c(N3CCN(c4ccccn4)CC3)c(F)cc2c1=O | – | – | – | – | 490 | 9200 | –
CCn1cc(C(=O)O)c(=O)c2cc(F)c(N3CCN(c4ccccn4)CC3)c(C(F)(F)F)c21 | 2 | 6740 | 370 | 26 | – | – | –
Cn1cc(C(=O)O)c(=O)c2cc(F)c(N3CCN(c4ncccn4)CC3)c(C(F)(F)F)c21 | 1 | 58500 | 890 | 49 | – | – | Tmax [5]: 4 h; MRT [6]: 8.2 h; AUC [7]: 16400 ng·h/mL; clearance [8]: 1.08 mL/min/kg; Vd [9]: 0.491 L/kg; bioavailability [10]: 112%; half-life [11]: 7.6 h; Cmax [12]: 1500 ng/mL; half-life [13]: 8.7 h; AUC [14]: 18400 ng·h/mL
CCn1cc(C(=O)O)c(=O)c2cc(F)c(N3CCN(c4ccccc4OC)CC3)c(C(F)(F)F)c21 | – | – | 750 | 110 | – | – | –
COc1ccccc1N1CCN(c2c(F)cc3c(=O)c(C(=O)O)cn(C)c3c2C(F)F)CC1 | – | – | – | – | 350 | 11000 | –
O=C(O)c1cn(C2CC2)c2c(C(F)F)c(N3CCN(c4ncccn4)CC3)c(F)cc2c1=O | – | – | – | – | 3700 | 21000 | –
Cn1cc(C(=O)O)c(=O)c2cc(F)c(N3CCN(c4ncccn4)CC3)c(C(F)F)c21 | – | – | 13000 | 310 | – | – | –
CCn1cc(C(=O)O)c(=O)c2cc(F)c(N3CCN(c4ncccn4)CC3)c(C(F)F)c21 | – | – | 20000 | 470 | – | – | –
O=C(O)c1cn(C2CC2)c2c(C(F)(F)F)c(N3CCN(c4ccccn4)CC3)c(F)cc2c1=O | 2 | 5830 | 1400 | 65 | – | – | Tmax [5]: 2 h; MRT [6]: 0.8 h; AUC [7]: 3500 ng·h/mL; clearance [8]: 4.89 mL/min/kg; Vd [9]: 0.225 L/kg; bioavailability [10]: 4.3%; half-life [11]: 0.7 h; Cmax [12]: 100 ng/mL
O=C(O)c1cn(C2CC2)c2c(C(F)(F)F)c(N3CCN(c4ncccn4)CC3)c(F)cc2c1=O | 1 | 7020 | 5200 | 190 | – | – | –
CCn1cc(C(=O)O)c(=O)c2cc(F)c(N3CCN(c4ccccn4)CC3)c(C(F)F)c21 | – | – | – | – | 890 | 4100 | –
COc1ccccc1N1CCN(c2c(F)cc3c(=O)c(C(=O)O)cn(C)c3c2C(F)(F)F)CC1 | – | – | 500 | 54 | – | – | Tmax [17]: 2 h; Cmax [18]: 2770 ng/mL
CCn1cc(C(=O)O)c(=O)c2cc(F)c(N3CCN(c4ccccc4OC)CC3)c(C(F)F)c21 | – | – | – | – | 220 | 8300 | –

— ChEMBL document CHEMBL1135219, “Anti-HIV-1 activities and pharmacokinetics of new arylpiperazinyl fluoroquinolones” (Bioorg Med Chem Lett, 2002)
